Source: patent US7064207B2, “Androgen receptor antagonists” (Warner Lambert Company LLC, priority 2003, dated 2006)

Target: T1, androgen receptor (Homo sapiens, UniProt P10275)
T1 sequence (P10275 1-920 Q868H): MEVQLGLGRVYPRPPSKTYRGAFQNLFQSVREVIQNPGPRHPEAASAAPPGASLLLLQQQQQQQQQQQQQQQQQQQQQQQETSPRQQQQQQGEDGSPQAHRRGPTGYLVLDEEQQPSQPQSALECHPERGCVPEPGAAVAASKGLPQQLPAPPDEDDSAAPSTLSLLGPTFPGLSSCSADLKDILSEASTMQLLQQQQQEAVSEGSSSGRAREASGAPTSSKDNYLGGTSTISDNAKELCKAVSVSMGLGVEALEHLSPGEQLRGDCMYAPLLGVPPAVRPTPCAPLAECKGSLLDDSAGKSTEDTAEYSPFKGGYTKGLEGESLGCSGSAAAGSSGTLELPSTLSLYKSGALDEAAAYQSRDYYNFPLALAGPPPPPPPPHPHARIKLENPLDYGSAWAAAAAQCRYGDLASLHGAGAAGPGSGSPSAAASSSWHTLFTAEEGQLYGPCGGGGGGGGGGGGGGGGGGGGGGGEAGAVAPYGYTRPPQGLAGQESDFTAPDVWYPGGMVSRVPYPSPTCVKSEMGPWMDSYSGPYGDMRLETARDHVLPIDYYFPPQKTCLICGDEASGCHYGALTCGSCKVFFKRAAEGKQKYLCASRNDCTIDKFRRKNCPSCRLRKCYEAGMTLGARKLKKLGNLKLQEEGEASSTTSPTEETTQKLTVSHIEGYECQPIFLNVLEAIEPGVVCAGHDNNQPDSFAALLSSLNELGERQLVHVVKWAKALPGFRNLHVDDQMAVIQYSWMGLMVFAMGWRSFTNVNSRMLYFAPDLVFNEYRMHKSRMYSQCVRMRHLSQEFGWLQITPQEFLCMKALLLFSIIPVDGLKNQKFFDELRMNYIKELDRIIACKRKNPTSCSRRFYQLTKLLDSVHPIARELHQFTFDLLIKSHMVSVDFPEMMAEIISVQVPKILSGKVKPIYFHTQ
Assay: AR Antagonist Cell Assay (MMTV-luciferase reporter, inhibition of DHT induction)
Assay type: cell-based
Conditions: MDA-MB453-MMTV clone 54-19 cells, 100 pM DHT, 17 hr, luciferase; read-out: Cell IC50
Protocol: The compounds ability to antagonize the effects of androgen on the androgen receptor were determined in the protocol described immediately below.
Experimental Procedure for AR Antagonist Cell Assay
Cell line: MDA-MB453-MMTV clone 54–19. This cell line is a stable transfected cell line with MDA-MB453 cell background (human breast tumor cell expressing high level of androgen receptor). A MMTV minimal promoter containing ARE was first cloned in front of a firefly luciferase reporter gene. Then the cascade was cloned into transfection vector pUV120puro. Electroporation method was used for transfecting MDA-MB-453 cell. Puromycin resistant stable cell line was selected. Cell Culture Media and Reagents:
Culture medium: DMEM (high glucose, Gibco cat #: 11960-044), 10% FBS, and 1% L-glutamine
Plating medium: DMEM (phenol red free), 10% charcoal treated HyClone serum, 1% L-glutamine
Assay medium: DMEM (phenol red free), 1% charcoal treated HyClone serum, 1% L-glutamine, and 1% penicillin/streptomycin
3× luciferase buffer: 2% beta-mercaptoethanol, 0.6% ATP, 0.0135% luciferine in cell lysis buffer
• 1. Cells are maintained in culture medium, splitting cells when they reach 80–90% confluence • 2. To test compounds, 10,000 cells/well are plated to opaque 96 cell culture plate in 100 ul/well plating medium, culture for overnight at 37° C. in cell culture incubator • 3. Carefully remove plating medium, then add 80 ul/well of pre-warmed assay medium, add 10 ul/well testing compound (final concentration at 10 uM or 1 uM), incubate at 37° C. for 30 minutes • 4. Add 10 ul/well freshly prepared DHT (final concentration at 100 pM) to each well, incubate at 37° C. for 17 hr (overnight) • 5. Add 50 ul/well 3× luciferase buffer, incubate at room temperature for 5 minutes, then count on Luminometer The fold induction over background by 100 pM DHT in the absence of testing compounds is standardized as 100% and experimental result is expressed as percentage of inhibition by testing compounds.

Structure (SMILES) | IC50
CCOC(=O)C1CCN(S(=O)(=O)c2ccc3[nH]c(=O)cc(C(F)(F)F)c3c2)CC1 [Example 15, 1-(2-Oxo-4-trifluoromethyl-1,2-dihydroquinoline-6-sulfonyl)piperidine-4-carboxylic acid ethylester] | 1260 nM
O=c1cc(C(F)(F)F)c2cc(S(=O)(=O)N3CCN(c4ccccn4)CC3)ccc2[nH]1 [Example 40, 6-(4-Pyridin-2-ylpiperazine-1-sulfonyl)-4-trifluoromethyl-1H-quinolin-2-one] | > 10000 nM
O=c1cc(C(F)(F)F)c2cc(S(=O)(=O)N3CCCC3)ccc2[nH]1 [Example 33, 6-(Pyrrolidine-1-sulfonyl)-4-trifluoromethyl-1H-quinolin-2-one] | 310 nM
O=c1cc(C(F)(F)F)c2cc(S(=O)(=O)N3CCN(C4CCCC4)CC3)ccc2[nH]1 [Example 38, 6-(4-Cyclopentylpiperazine-1-sulfonyl)-4-trifluoromethyl-1H-quinolin-2-one] | > 10000 nM
COc1cc2c(cc1OC)CN(S(=O)(=O)c1ccc3[nH]c(=O)cc(C(F)(F)F)c3c1)CC2 [Example 21, 6-(6,7-Dimethoxy-3,4-dihydro-1H-isoquinoline-2-sulfonyl)-4-trifluoromethyl-1H-quinolin-2-one] | 480 nM
O=c1cc(C(F)(F)F)c2cc(S(=O)(=O)N3CCCCC3CCO)ccc2[nH]1 (centres unmarked) [Example 29, 6-[2-(2-Hydroxyethyl)-piperidine-1-sulfonyl]-4-trifluoromethyl-1H-quinolin-2-one] | > 10000 nM
Cn1c(=O)cc(C(F)(F)F)c2cc(S(=O)(=O)N3CCSC3)ccc21 [Example 7, 1-Methyl-6-(thiazolidine-3-sulfonyl)-4-trifluoromethyl-1H-quinolin-2-one] | > 10000 nM
O=c1cc(C(F)(F)F)c2cc(S(=O)(=O)N3Cc4ccccc4C3)ccc2[nH]1 [Example 18, 6-(1,3-Dihydroisoindole-2-sulfonyl)-4-trifluoromethyl-1H-quinolin-2-one] | 490 nM
